Results taken from patent US20250195403A1, “SKIN WHITENING, ANTI-BACTERIAL OR ANTI-ATOPIC COMPOSITION, CONTAINING SYZYGIUM FORMOSUM EXTRACT AS ACTIVE INGREDIENT” (CARBOEXPERT INC., priority 2018, published 2025).

Experiments:
tyrosinase [1] = experiment: Tyrosinase inhibitory activity using L-tyrosine; type: biochemical; settings: substrate L-tyrosine, sample 0.5 mg/ml, 25° C., 15 minutes, 475 nm
Experimental: The inhibitory activity of tyrosinase, which is an enzyme that plays an important role in the melanin synthesis process, was confirmed using the Syzygium formosum extract.
500 μl of 1 mM L-tyrosine, 900 μl of 0.1 M phosphate buffer (pH 6.8), and 100 μl of 0.5 mg/ml Syzygium formosum extract dissolved in 10% DMSO (Example 1, Example 2, and Comparative Examples 1 to 7) were mixed, and then 100 μl of tyrosinase (53.7 U/ml) was added thereto and reacted at a temperature of 25° C. for 15 minutes. At this time, DMSO was used as a control group, and 0.5 mg/ml arbutin was used as a positive control group.
The absorbance of the reaction solution was measured at 475 nm for 15 minutes at time intervals of 30 seconds, and then, the tyrosinase inhibitory activity (%) was calculated using Equation 1.

tyrosinase [2] = experiment: Tyrosinase inhibitory activity using L-DOPA; type: biochemical; settings: substrate L-DOPA, 25° C., 5 minutes, 475 nm
Experimental: Tyrosinase inhibitory activity was confirmed using L-DOPA.
• Tyrosinase solution: Tyrosinase was dissolved in 0.1M PBS (Phosphate buffered saline) buffer to prepare a solution having a concentration of 110 U/ml. • Substrate: L-DOPA was dissolved in 0.1M PBS buffer to be in the concentration of 5 mM. • Sample Usage: Diluted with distilled water to a corresponding concentration and used. • Negative control: Distilled water was added instead of the sample.
Syzygium formosum extract (Example 1, Example 2, and Comparative Examples 1 to 7), 30 μl of negative control (control), 30 μl of positive control (positive control), 70 μl of 0.1M PBS buffer, and 30 μl of substrate were added. Then, 20 μl of tyrosinase was added thereto, and the reaction was performed at a temperature of 25° C. for 5 minutes. After completion of the reaction, absorbance was measured at 475 nm. The tyrosinase inhibitory activity (%) was calculated using Equation 1 by comparing the absorbance of the test group with that of the control group.

B16F10 cell line = experiment: Melanin production inhibitory activity in B16F10 cells; type: cell-based, mice; settings: extract 0.1 mg/ml, 72 hours, 400 nm
Experimental: The cell line used in the test was B16F10 cell line (Korean Cell Line Bank, Korea), which is a malignant melanoma cell in mice. The cryopreserved cell line was cultured in a culture dish, and after cell line stabilization was confirmed while repeating the subculture twice to three times in the cycle of 2 to 3 days after the first cell culture, cells were cultured in a 48-well plate by the number of cells of 1×10^5/well. Then, the test was prepared by incubating for 24 hours. […] 300 μl of the medium containing each of the sample, the negative control group, and the positive control group was added to a 48-well plate on which cell had been cultured in advance, and cell were cultured for 72 hours at 37° C. under 5% CO2 while the medium was exchanged every day. Thereafter, the medium was removed by washing each well with PBS, and then the cells were treated with 200 μl of 1N NaOH. Thereafter, absorbance was measured at 400 nm using a SpectraMax M2 (Molecular devices, USA). The degree of inhibition on the production of melanin was calculated by comparing the absorbance of the test group with that of the control group treated with the negative control group by using Equation 2. [formula]

OC[C@H]1O[C@@H](Oc2ccc(O)cc2)[C@H](O)[C@@H](O)[C@@H]1O [Arbutin, arbutin]
Inhibitory activity (%) (tyrosinase [1]): 49.1%
Inhibitory activity (%) (tyrosinase [2]): 18.6%
Inhibitory activity (%) (B16F10 cell line): 21.1%
